Measured values from patent publication US20230165970A1, “COMPOSITIONS AND METHODS FOR THE TREATMENT OF BACTERIAL INFECTIONS” (priority 2017, published 2023).
In brackets after ≈: the same amount, converted by molar mass. *1 amine or outer side, *2 acyl side, *3 side chain or, on linkers, in order; H or OH if unused. Where a SMILES comes first, the peptide text is derived from it. Bridges are numbered along the chain shown (N, C = ends). Roman numbers before positions name the chains, in order. [ ]: non-standard residue; d: D form. The star is where a group is joined. X5 = C#CCOCCOCCOCCOCCN1C[C@@H](C(=O)[*:1])[C@H](C(=O)[*:2])C1; X2 = O=C([C@@H](N[*:1])[C@H](O)CCC(F)(F)F)[*:2]; Propargyl(OCH2CH2)4CO = C#CCOCCOCCOCCOCCC(=O)*; X3 = CCCCC[C@@H](O)[C@H](N[*:1])C(=O)[*:2]; azaDab = NCCN(N[*:1])C(=O)[*:2]; Aoc(2) = CCCCCC[C@H](N)C(=O)O; hLeu = CC(C)CC[C@H](N)C(=O)O; Nle = CCCC[C@H](N)C(=O)O; Dab = NCC[C@H](N)C(=O)O; azaGly = NNC(=O)O

Columns and labels:
[1] = system: Ec AR0349 (mcr-1, COL^R); format: cell-based, Escherichia coli; details: media CA-MHB
[2] = system: Ec 25922 64X-1 (COL^R); format: cell-based, Escherichia coli; details: media CA-MHB
[3] = system: Ab 19606 (COLhet^R); format: cell-based, Acinetobacter baumannii; details: media CA-MHB
[4] = system: A. baumannii AB5075; format: cell-based
Description: (§1) Overnight stationary-phase cultures were centrifuged at 3,500×g for 10 min at room temperature and resuspended in 1×PBS to an optical density at 600 nm (OD600) of 0.4 (1×10^8 colony forming units [CFU]/ml) in RPMI with L-glutamine and phenol red (Life Technologies). Bacteria were diluted 1:25 in RPMI ([…]) and 10 ul added to wells of a non-binding 96-well plate (Corning 3641) containing 80 ul of 50% hirudin anti-coagulated blood (complement active) in RPMI. […] MBC was defined as the minimum conjugate concentration required for bacterial clearance (Table 8A and Table 8B). An untreated growth control (40% blood, 0 ug/ml conjugate) was included in all assays as a growth comparator.
(§2) MBC was defined as the minimum compound concentration required for complete bacterial clearance (Table 18).
(§3) In most cases, 2-4 fold improvements in antibacterial activity for the conjugates are observed in the presence of complement active human blood.

[5] = system: P. aeruginosa PAO1; format: cell-based
Description: as §1, §2, §3

[6] = system: E. coli ATCC 25922; format: cell-based
Description: as §1, §2, §3

[7] = system: A. baumannii AB5075; assay: Murine pneumonia model vs. A. baumannii AB5075 (survival); format: in vivo, C57BI/6J mice; details: 1×10^8 CFU; for protection against lethal challenge (survival monitored 5 days): 5 mg/kg IV twice at t=+1 h and +4 h, n=5 (FIG. 118)
Description: (§4) The murine pneumonia model was adapted from Lin et al., 2015 (PMID: 26288841). A. baumannii AB5075 was grown to log-phase in LB at 37° C., 200 rpm shaking. Bacteria were washed once with PBS via centrifugation at 4,000 rpm. Bacteria were adjusted to the desired concentration in PBS.
Prior to infection, 8-week-old female C57BI/6J mice (Jackson Labs) were anesthetized with 100 mg/kg ketamine and 10 mg/kg xylazine. Using an otoscope, mice were infected non-invasively directly into the trachea.
Mice were infected with 5×10^7 CFU in 30 μL of PBS. Mice were treated intraperitoneally with different doses of conjugate 23 or hIgG1 (50 mpk) at t=−12 h pre-infection and t=+1 h post-infection or with colistin (10 mpk) or PBS at t=+1 h, 5 h, 24 h, 36 h, 48 h and 60 h post-infection.
Survival of mice (n=5 per group) was monitored for 5 days. […] Colistin was used as positive control resulting in 80% protection.
as §4, with “PBS. Prior to infection, 8-week-old female C57BI/6J mice (Jackson Labs) were anesthetized with 100 mg/kg ketamine and 10 mg/kg xylazine. Using an otoscope, mice were infected non-invasively directly into the trachea.” for “PBS.”
Mice were infected with 5×10^7 CFU in 30 μL of PBS. Mice were treated intraperitoneally with conjugate 34 or hIgG1 (50 mpk) at t=−12 h pre-infection.
Survival of mice (n=4 per group) was monitored for 5 days. A single dose of ADC conjugate 34 was protective (75% survival) against a lethal challenge with A. baumannii AB5075.
The murine pneumonia model was adapted from Lin et al., 2015 (PMID: 26288841). A. baumannii AB5075 was grown to log-phase in LB at 37° C., 200 rpm shaking. Bacteria were washed once with PBS via centrifugation at 4,000 rpm. Bacteria were adjusted to desired concentration in PBS. […]
The survival (n=5 per group) was monitored twice daily for 5 days. […]

C#CCOCCOCCOCCOCCC(=O)N[C@@H](CCC(C)C)C(=O)N[C@@H](CCN)C(=O)N[C@H](C(=O)NN(CCN)C(=O)N[C@H]1CCNC(=O)[C@H]([C@@H](C)O)NC(=O)[C@H](CCN)NC(=O)[C@H](CCN)NC(=O)[C@H](CC(C)C)NC(=O)[C@@H](Cc2ccccc2)NC(=O)[C@H](CCN)NC1=O)[C@@H](C)O [Int-127] ({Propargyl(OCH2CH2)4CO}-[hLeu][Dab]T[azaDab][Dab][Dab][dF]L[Dab][Dab]T; lactam 5-C)
MIC [1]: 8 µg/mL (≈ 5.58 µM)
MIC [2]: 64 µg/mL (≈ 44.6 µM)
MIC [3]: 2 µg/mL (≈ 1.39 µM)
MBC in blood AB 5075 [4]: 0.1 µg/mL (≈ 0.0697 µM)
MBC in blood PA 01 [5]: 0.1 µg/mL (≈ 0.0697 µM)
MBC in blood EC 25922 [6]: 0.025 µg/mL (≈ 0.0174 µM)

C#CCOCCOCCOCCOCCC(=O)N[C@@H](CCC(C)C)C(=O)N[C@@H](CCN)C(=O)N[C@H](C(=O)NNC(=O)N[C@H]1CCNC(=O)[C@H]([C@@H](C)O)NC(=O)[C@H](CCN)NC(=O)[C@H](CCN)NC(=O)[C@H](CC(C)C)NC(=O)[C@@H](Cc2ccccc2)NC(=O)[C@H](CCN)NC1=O)[C@H](O)CCCCC [Int-116] ({Propargyl(OCH2CH2)4CO}-[hLeu][Dab][X3][azaGly][Dab][Dab][dF]L[Dab][Dab]T; lactam 5-C)
protection against lethal challenge (survival monitored 5 days) [7]: fully protective
MIC [1]: 8 µg/mL (≈ 5.53 µM)
MIC [2]: 64 µg/mL (≈ 44.2 µM)
MIC [3]: 1 µg/mL (≈ 0.691 µM)
MBC in blood AB 5075 [4]: 0.05 µg/mL (≈ 0.0346 µM)
MBC in blood PA 01 [5]: >0.2 µg/mL
MBC in blood EC 25922 [6]: 0.2 µg/mL (≈ 0.138 µM)

C#CCOCCOCCOCCOCCN1C[C@@H](C(=O)N[C@@H](CCCC)C(=O)N[C@@H](CCN)C(=O)N[C@H](C(=O)NNC(=O)N[C@H]2CCNC(=O)[C@H]([C@@H](C)O)NC(=O)[C@H](CCN)NC(=O)[C@H](CCN)NC(=O)[C@H](CC(C)C)NC(=O)[C@@H](Cc3ccccc3)NC(=O)[C@H](CCN)NC2=O)[C@@H](C)O)[C@H](C(=O)N[C@@H](CCCC)C(=O)N[C@@H](CCN)C(=O)N[C@H](C(=O)NNC(=O)N[C@H]2CCNC(=O)[C@H]([C@@H](C)O)NC(=O)[C@H](CCN)NC(=O)[C@H](CCN)NC(=O)[C@H](CC(C)C)NC(=O)[C@@H](Cc3ccccc3)NC(=O)[C@H](CCN)NC2=O)[C@@H](C)O)C1 [Int-120] (I: [Nle][Dab]T[azaGly][Dab][Dab][dF]L[Dab][Dab]T / II: [Nle][Dab]T[azaGly][Dab][Dab][dF]L[Dab][Dab]T; lactam I:5-I:C, II:5-II:C; linker I:N-II:N via X5)
MIC [1]: 2 µg/mL (≈ 0.767 µM)
MIC [2]: 2 µg/mL (≈ 0.767 µM)
MIC [3]: 2 µg/mL (≈ 0.767 µM)

C#CCOCCOCCOCCOCCC(=O)N[C@@H](CCCCCC)C(=O)N[C@@H](CCN)C(=O)N[C@H](C(=O)N[C@@H](CCN)C(=O)N[C@H]1CCNC(=O)[C@H]([C@@H](C)O)NC(=O)[C@H](CCN)NC(=O)[C@H](CCN)NC(=O)[C@H](CC(C)C)NC(=O)[C@@H](Cc2ccccc2)NC(=O)[C@H](CCN)NC1=O)[C@H](O)CCC(F)(F)F [Int-118] ({Propargyl(OCH2CH2)4CO}-[Aoc(2)][Dab][X2][Dab][Dab][Dab][dF]L[Dab][Dab]T; lactam 5-C)
protection against lethal challenge (survival monitored 5 days) [7]: 40%
MBC in blood AB 5075 [4]: 0.025 µg/mL (≈ 0.0164 µM)
MBC in blood PA 01 [5]: >0.2 µg/mL
MBC in blood EC 25922 [6]: 0.05 µg/mL (≈ 0.0327 µM)

C#CCOCCOCCOCCOCCC(=O)N[C@@H](CCCCCC)C(=O)N[C@@H](CCN)C(=O)N[C@H](C(=O)NN(CCN)C(=O)N[C@H]1CCNC(=O)[C@H]([C@@H](C)O)NC(=O)[C@H](CCN)NC(=O)[C@H](CCN)NC(=O)[C@H](CC(C)C)NC(=O)[C@@H](Cc2ccccc2)NC(=O)[C@H](CCN)NC1=O)[C@@H](C)O [Int-129] ({Propargyl(OCH2CH2)4CO}-[Aoc(2)][Dab]T[azaDab][Dab][Dab][dF]L[Dab][Dab]T; lactam 5-C)
survival (monitored 5 days) ([7]; 10 mg/kg IV twice at t=+1 h and +4 h, n=5 (FIG. 119)): 60%
